Laboratory results from the Kinase Knowledgebase extract (Sharma et al. 2016).

Tests used:
CDK2 = CDK2 (UniProt P24941); assay: Enzyme Assay
EGFR = EGFR (UniProt P00533); conditions: concentration not given here
EGFR, sequence (P00533 whole entry, looked up): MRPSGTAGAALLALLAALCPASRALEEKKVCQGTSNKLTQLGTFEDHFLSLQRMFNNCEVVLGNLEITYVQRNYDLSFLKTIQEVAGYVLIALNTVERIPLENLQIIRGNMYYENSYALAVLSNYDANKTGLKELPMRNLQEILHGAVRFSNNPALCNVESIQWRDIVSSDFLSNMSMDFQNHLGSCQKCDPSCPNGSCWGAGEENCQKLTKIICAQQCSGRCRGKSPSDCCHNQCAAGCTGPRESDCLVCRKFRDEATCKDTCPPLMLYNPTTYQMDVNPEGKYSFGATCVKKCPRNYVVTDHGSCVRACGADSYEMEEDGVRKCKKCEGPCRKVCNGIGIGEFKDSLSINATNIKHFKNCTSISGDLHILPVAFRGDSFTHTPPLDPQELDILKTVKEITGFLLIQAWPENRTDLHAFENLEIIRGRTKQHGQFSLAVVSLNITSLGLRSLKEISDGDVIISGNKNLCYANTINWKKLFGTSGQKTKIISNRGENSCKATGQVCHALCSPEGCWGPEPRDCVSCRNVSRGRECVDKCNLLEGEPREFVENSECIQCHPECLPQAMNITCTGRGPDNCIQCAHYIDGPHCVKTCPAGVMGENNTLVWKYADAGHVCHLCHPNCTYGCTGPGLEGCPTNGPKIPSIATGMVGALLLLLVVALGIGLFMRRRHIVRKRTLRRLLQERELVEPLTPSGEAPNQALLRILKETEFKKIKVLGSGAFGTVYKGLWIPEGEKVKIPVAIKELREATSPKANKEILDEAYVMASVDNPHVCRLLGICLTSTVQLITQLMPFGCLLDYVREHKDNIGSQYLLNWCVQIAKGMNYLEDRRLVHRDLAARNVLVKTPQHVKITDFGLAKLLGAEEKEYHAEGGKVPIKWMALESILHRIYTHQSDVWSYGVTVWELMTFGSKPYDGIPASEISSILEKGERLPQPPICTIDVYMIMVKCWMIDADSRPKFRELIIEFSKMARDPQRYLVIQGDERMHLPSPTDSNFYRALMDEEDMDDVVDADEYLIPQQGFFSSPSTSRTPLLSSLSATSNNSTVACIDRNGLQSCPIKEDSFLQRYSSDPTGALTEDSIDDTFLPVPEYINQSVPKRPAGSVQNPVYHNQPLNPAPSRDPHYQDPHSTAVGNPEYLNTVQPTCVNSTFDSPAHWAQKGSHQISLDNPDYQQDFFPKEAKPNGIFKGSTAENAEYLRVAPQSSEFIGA

COc1ccccc1-c1cc(Nc2ccc(NC(=O)[C@@H]3Cc4ccccc4CN3)cc2)ncn1
IC50 (CDK2): 1000 to 10000 nM | inhibition (EGFR): > 80%

NC(=O)c1ccc(Nc2cc(-c3ccccc3OCc3ccccc3)ncn2)cc1
IC50 (CDK2): 1 to 1000 nM | inhibition (EGFR): 50 to 80%

COc1ccccc1-c1cc(Nc2ccc(NC(=O)C3CCCN(C)C3)cc2)ncn1 (stereo not given)
IC50 (CDK2): 1000 to 10000 nM | inhibition (EGFR): > 80%

COc1ccccc1-c1cc(Nc2ccc(NC(=O)Cc3ccccc3)cc2)ncn1
IC50 (CDK2): 1000 to 10000 nM | inhibition (EGFR): 30 to 50%

COc1ccccc1-c1cc(Nc2ccc(NC(C)=O)cc2)ncn1
IC50 (CDK2): 1 to 1000 nM | inhibition (EGFR): 50 to 80%

NCCCOc1ccccc1-c1cc(Nc2ccc(NC(=O)c3ccc(N)cc3)cc2)ncn1
IC50 (CDK2): 1000 to 10000 nM | inhibition (EGFR): > 80%

COc1ccccc1-c1cc(Nc2ccc(NC(=O)[C@@H]3CCCCN3)cc2)ncn1
IC50 (CDK2): 1000 to 10000 nM | inhibition (EGFR): > 80%

CCCS(=O)(=O)Nc1cc(Nc2cc(-c3cccc(N)c3)ncn2)ccc1C
IC50 (CDK2): 1 to 1000 nM | inhibition (EGFR): > 80%

COc1ccccc1-c1cc(Nc2ccc(NS(C)(=O)=O)cc2)ncn1
IC50 (CDK2): 1 to 1000 nM | inhibition (EGFR): 50 to 80%

COc1ccccc1-c1cc(Nc2ccc(NC(=O)C3(N)CCCC3)cc2)ncn1
IC50 (CDK2): 1000 to 10000 nM | inhibition (EGFR): > 80%

COc1ccccc1-c1cc(Nc2ccc(NC(=O)NC3CCCCC3)cc2)ncn1
IC50 (CDK2): 1000 to 10000 nM | inhibition (EGFR): 30 to 50%

COc1ccccc1-c1cc(Nc2ccc(C(=O)N[C@@H]3CCCC[C@H]3N)cc2)ncn1.COc1ccccc1-c1cc(Nc2ccc(C(=O)N[C@H]3CCCC[C@@H]3N)cc2)ncn1
IC50 (CDK2): 1000 to 10000 nM | inhibition (EGFR): 50 to 80%

COc1ccccc1-c1cc(Nc2ccc(C(=O)NC3CCCNC3)cc2)ncn1 (stereo not given)
IC50 (CDK2): 1 to 1000 nM | inhibition (EGFR): > 80%

COc1ccccc1-c1cc(Nc2ccc(NC(=O)[C@H]3CCCN3)cc2)ncn1
IC50 (CDK2): 1000 to 10000 nM | inhibition (EGFR): > 80%

COc1ccccc1-c1cc(Nc2ccc(N3CCCC3=O)cc2)ncn1
IC50 (CDK2): 1 to 1000 nM | inhibition (EGFR): 50 to 80%

Nc1ccc(C(=O)Nc2ccc(Nc3cc(-c4ccccc4OCc4ccccc4)ncn3)cc2)cc1
IC50 (CDK2): 1000 to 10000 nM | inhibition (EGFR): 30 to 50%

COc1ccccc1-c1cc(Nc2ccc(NC(=O)CC3CCCCN3)cc2)ncn1 (stereo not given)
IC50 (CDK2): 1000 to 10000 nM | inhibition (EGFR): > 80%

COc1ccccc1-c1cc(Nc2ccc(NC(=O)C3(N)CCCCC3)cc2)ncn1
IC50 (CDK2): 1000 to 10000 nM | inhibition (EGFR): > 80%

COc1ccccc1-c1cc(Nc2ccc(NC(=O)[C@H]3CCCCN3)cc2)ncn1
IC50 (CDK2): 1000 to 10000 nM | inhibition (EGFR): > 80%

Cc1ccc(Nc2cc(-c3cccc(N)c3)ncn2)cc1NS(C)(=O)=O
IC50 (CDK2): 1 to 1000 nM | inhibition (EGFR): > 80%

CN[C@H](C(=O)Nc1ccc(Nc2cc(-c3ccccc3OC)ncn2)cc1)c1ccccc1
IC50 (CDK2): 1000 to 10000 nM | inhibition (EGFR): > 80%

COc1ccccc1-c1cc(Nc2ccc(NC(=O)c3ccc(N4CCN(C)CC4)cc3)cc2)ncn1
IC50 (CDK2): 1000 to 10000 nM | inhibition (EGFR): 50 to 80%

CC(C)Oc1ccccc1-c1cc(Nc2ccc(NC(=O)c3ccc(N)cc3)cc2)ncn1
IC50 (CDK2): 1 to 1000 nM | inhibition (EGFR): 50 to 80%

COc1ccccc1-c1cc(Nc2ccc(NC(=O)c3cn(C)cn3)cc2)ncn1
IC50 (CDK2): 1000 to 10000 nM | inhibition (EGFR): 50 to 80%

COc1ccccc1-c1cc(Nc2ccc(C(=O)NC(C)(C)C)cc2)ncn1
IC50 (CDK2): 1000 to 10000 nM

COc1ccccc1-c1cc(Nc2ccc(NS(=O)(=O)C(C)C)cc2)ncn1
IC50 (CDK2): 1 to 1000 nM

O=C(Nc1ccc(Nc2cc(-c3ccccc3Cl)ncn2)cc1)[C@@H]1CCCCN1
IC50 (CDK2): 10000 to 250000 nM

COc1ccccc1-c1cc(Nc2ccc(NS(=O)(=O)c3ccc(C(C)C)cc3)cc2)ncn1
IC50 (CDK2): 1000 to 10000 nM

COc1ccccc1-c1cc(Nc2ccc(C(=O)Nc3ccc(C(C)(C)C)cc3)cc2)ncn1
IC50 (CDK2): 10000 to 250000 nM

COc1ncccc1-c1cc(Nc2ccc(NC(=O)[C@@H]3CCCCN3)cc2)ncn1
IC50 (CDK2): 1000 to 10000 nM

Cc1ccc(Nc2cc(-c3ccccc3OCc3ccccc3)ncn2)cc1NS(C)(=O)=O
IC50 (CDK2): 1 to 1000 nM

COc1ccccc1-c1cc(Nc2ccc(NC(=O)c3ccc4ccccc4c3O)cc2)ncn1
IC50 (CDK2): 1000 to 10000 nM

COc1ccccc1-c1cc(Nc2ccc(NC(=O)[C@@H]3CCCCN3C(=O)OC(C)(C)C)cc2)ncn1
IC50 (CDK2): 1000 to 10000 nM

COc1ccccc1-c1cc(Nc2ccc(NC(=O)NCc3ccc(C)cc3)cc2)ncn1
IC50 (CDK2): 10000 to 250000 nM

Cc1ccc(Nc2cc(-c3cccc(C(F)(F)F)c3)ncn2)cc1NS(C)(=O)=O
IC50 (CDK2): 10000 to 250000 nM

Nc1ccc(C(=O)Nc2ccc(Nc3cc(Cl)ncn3)cc2)cc1
IC50 (CDK2): 10000 to 250000 nM

CCN(CC)CCC(=O)Nc1ccc(Nc2cc(-c3ccccc3OC)ncn2)cc1
IC50 (CDK2): 1000 to 10000 nM | inhibition (EGFR): > 80%

Cc1ccc(Nc2cc(-c3cccc(N)c3)ncn2)cc1NS(=O)(=O)c1cccc2cccnc12
IC50 (CDK2): 10000 to 250000 nM

COc1ccc(-c2cc(Nc3ccc(NS(=O)(=O)c4ccc(C)cc4)cc3)ncn2)cc1
IC50 (CDK2): 1000 to 10000 nM

COc1ccccc1-c1cc(Nc2ccc(NC(=O)c3ccc4[nH]cnc4c3)cc2)ncn1
IC50 (CDK2): 10000 to 250000 nM

Nc1ccc(C(=O)Nc2ccc(Nc3cc(-c4ccncc4)ncn3)cc2)cc1
IC50 (CDK2): 10000 to 250000 nM

Nc1ccc(C(=O)Nc2ccc(Nc3cc(-c4ccc(O)cc4)ncn3)cc2)cc1
IC50 (CDK2): 1000 to 10000 nM

Cc1ccc(Nc2cc(-c3cccc(N)c3)ncn2)cc1NS(=O)(=O)c1ccccc1
IC50 (CDK2): 1000 to 10000 nM | inhibition (EGFR): 50 to 80%

CC(C)Oc1ccccc1-c1cc(Nc2ccc(NC(=O)[C@@H]3CCCCN3)cc2)ncn1
IC50 (CDK2): 1000 to 10000 nM

COc1ccc(-c2cc(NCCc3ccncc3)ncn2)cc1
IC50 (CDK2): 10000 to 250000 nM

Cc1ccc(Nc2cc(-c3cccc(N)c3)ncn2)cc1NS(=O)(=O)c1cn(C)cn1
IC50 (CDK2): 1 to 1000 nM

CNC(C)(C)C(=O)Nc1ccc(Nc2cc(-c3ccccc3OC)ncn2)cc1
IC50 (CDK2): 1000 to 10000 nM | inhibition (EGFR): > 80%

COc1ccccc1-c1cc(Nc2ccc(NC(=O)C34CC5CC(CC(C5)C3)C4)cc2)ncn1
IC50 (CDK2): 10000 to 250000 nM

COc1cccc(OC)c1-c1cc(Nc2ccc(NC(=O)c3ccc(N)cc3)cc2)ncn1
IC50 (CDK2): 10000 to 250000 nM

COc1ccccc1-c1cc(N(C)c2ccc(N)cc2)ncn1
IC50 (CDK2): 1000 to 10000 nM

Cc1ccc(S(=O)(=O)Nc2ccc(Nc3cc(Cl)ncn3)cc2)cc1
IC50 (CDK2): 1000 to 10000 nM

COc1cccc(-c2cc(Nc3ccc(NS(=O)(=O)c4ccc(C)cc4)cc3)ncn2)c1
IC50 (CDK2): 10000 to 250000 nM

COc1ccccc1-c1cc(Nc2ccc(NC(=O)C3CCN(C)CC3)cc2)ncn1
IC50 (CDK2): 1000 to 10000 nM

COc1ccccc1-c1cc(Nc2ccc(C(N)=O)cc2)ncn1
IC50 (CDK2): 1 to 1000 nM

COc1cccc(-c2cc(Nc3ccc(C)c(NS(C)(=O)=O)c3)ncn2)c1
IC50 (CDK2): 1000 to 10000 nM

CCOc1ccccc1-c1cc(Nc2ccc(NC(=O)c3ccc(N)cc3)cc2)ncn1
IC50 (CDK2): 1000 to 10000 nM

COc1ccc(OC)c(-c2cc(Nc3ccc(NC(=O)c4ccc(N)cc4)cc3)ncn2)c1
IC50 (CDK2): 10000 to 250000 nM

COc1ccc(Cl)cc1-c1cc(Nc2ccc(NC(=O)c3ccc(N)cc3)cc2)ncn1
IC50 (CDK2): 10000 to 250000 nM

COc1ccccc1-c1cc(Nc2ccc(N)cc2)ncn1
IC50 (CDK2): 1 to 1000 nM | inhibition (EGFR): > 80%

COc1ccccc1-c1cc(Nc2ccc(NC(=O)CCN)cc2)ncn1
IC50 (CDK2): 1000 to 10000 nM | inhibition (EGFR): > 80%

O=C(Nc1ccc(Nc2cc(-c3ccc(Oc4ccccc4)cc3)ncn2)cc1)[C@@H]1CCCCN1
IC50 (CDK2): 1000 to 10000 nM

Nc1ccc(C(=O)Nc2ccc(Nc3cc(-c4cccc(N)c4)ncn3)cc2)cc1
IC50 (CDK2): 1000 to 10000 nM

COC(=O)c1ccc(Nc2cc(-c3ccccc3OC)ncn2)cc1
IC50 (CDK2): 1 to 1000 nM

COc1ccccc1-c1cc(Nc2ccc(C)c(NS(C)(=O)=O)c2)ncn1
IC50 (CDK2): 1 to 1000 nM

COc1ccc(-c2cc(Nc3cccc(S(N)(=O)=O)c3)ncn2)cc1
IC50 (CDK2): 1 to 1000 nM

COc1ccccc1-c1cc(Nc2ccc(C(=O)N[C@@H]3CCCC[C@@H]3N)cc2)ncn1.COc1ccccc1-c1cc(Nc2ccc(C(=O)N[C@H]3CCCC[C@H]3N)cc2)ncn1
IC50 (CDK2): 1000 to 10000 nM

COc1ccccc1-c1cc(Nc2ccc(NC(=O)[C@@H](N)c3ccccc3)cc2)ncn1
IC50 (CDK2): 1000 to 10000 nM | inhibition (EGFR): 50 to 80%

Cc1ccc(Nc2cc(-c3ccccc3O)ncn2)cc1NS(C)(=O)=O
IC50 (CDK2): 1 to 1000 nM

Cc1ccc(Nc2cc(-c3cccc(CO)c3)ncn2)cc1NS(C)(=O)=O
IC50 (CDK2): 1000 to 10000 nM

CC(C)Oc1ccccc1-c1cc(Nc2ccc(C(=O)N[C@@H]3CCCC[C@H]3N)cc2)ncn1.CC(C)Oc1ccccc1-c1cc(Nc2ccc(C(=O)N[C@H]3CCCC[C@@H]3N)cc2)ncn1
IC50 (CDK2): 1000 to 10000 nM
